Values quoted from earlier work, collected in patent US10603272B2, “Stimulation of appetite and treatment of anorexia in dogs and cats” (Kindred Biosciences, Inc., priority 2015, dated 2020).

## CN1CCN2c3ncccc3Cc3ccccc3C2C1 (stereo not shown) [mirtazapine]
  solubility in water: insoluble in water
